The record followed here is patent publication US9718771B2, “Aniline derivative, pharmaceutical composition containing same, and use thereof” (Kissei Pharmaceutical Co., Ltd., priority 2014, dated 2017).

Series [1] relates to Naïve T cells-transferred colitis model. Nature of the series: Drug efficiency evaluation in naïve T cells-transferred colitis model. The series is classed as in vivo. The conditions noted are these: SCID mice, mean ± standard error. As for the experimental part: The Drug Efficiency Evaluation in Naïve T Cells—Transferred Colitis Model
(1) Purification of CD45RB Positive Naïve T Cells and Transfer the Cells into SCID Mice
After female BALB/c mice (Charles River Japan, 8-weeks-old in use) were sacrificed by blood removal from cervical vein under inhalation anesthesia with isoflurane spleens were harvested from these mice. Spleens were washed with ice-cold PBS (phosphate buffered saline, Invitrogen) and stored in 50 mL tube containing PBS on ice. Spleens stored on ice were mashed with the upper portion of slide glasses inside a biological safety cabinet, and filtered through a cell filter (pore size 70 μm), and the filtrate was centrifuged at 500×g, room temperature for 5 minutes. After the supernatant was removed, 12 mL of RBC lysis buffer (Biolegend) was added to a cell pellet and it was resuspended and left for about 3 minutes. The supernatant was removed after centrifugation and the hemolytic process was performed by repeating same procedure once again.
The cells were purified with Mouse Naive T cell CD4^+/CD62L^+/CD44^low Colum Kit (R&D systems). The cells performed with the hemolytic process, were suspended by column buffer attached to the above Column Kit, and purified through a cell filter (pore size 70 μm) after centrifugation at 500×g, room temperature for 5 minutes. The cells were resuspended with column buffer, and antibody cocktails attached to the above Column Kit were added to this and mixed. After that, the cells were purified according to the protocol of the Column Kit.
Next, purification of CD45RB positive cells was performed by MACS (registered mark) separator (Miltenyi Biotec). The purified cells were suspended with 2 mL of PBS containing 0.5% BSA, and reacted at room temperature for 15 minutes after adding FITC (fluorescein isothiocyanate)-labeled anti-CD45RB antibody (Biolegend). After washing two times with PBS containing 0.5% BSA by centrifugation, the cells were resuspended with 2 mL of PBS containing 0.5% BSA and reacted at room temperature for 10 minutes after adding anti-FITC microbeads (Miltenyi Biotec). After washing one time with PBS containing 0.5% BSA by centrifugation, the cells were resuspended with 3 mL of PBS containing 0.5% BSA, and a fraction of CD45RB positive cells was purified according to the protocol of MACS (registered trademark) separator. In the process of elution after detached from MACS (registered trademark) separator, the cells were separated with 5 mL of PBS. The cell suspension was washed one time by centrifugation with PBS, resuspended by appropriate PBS and measured the cell number as naïve T cells suspension for transfer. Female CB17/Icr-scid/scid Jcl (SCID mice) (Charles River Japan, 8-weeks-old in use) were induced colitis by intraperitoneal administration of 500 μL (divided into 250 μL two times) of naïve T cells suspension prepared at 6×10^5 cells/mL by PBS.
(2) Measurement of Body Weight and Procedure for Administration of Drugs
Body weights were measured at day 1, 8 and 15 as day 0 when naïve T cells were transferred to mice. Mice were grouped evenly, based on body weight change at day 15. The measurement of body weight was performed two times a week after day 15. A solvent (Vehicle) and test compounds were administered twice a day from the evening of day 15. The administration solution was prepared as indicated below. Firstly, 0.5% methyl cellulose (Wako pure chemicals) of 1/10 volume of total volume was added to test compound, and a suspension was prepared by sonication. […] After that, administration solutions for test compounds were prepared by sonication while adding distilled water of 9/10 volume of total volume to these suspensions in several batches. A solution prepared in the same volume ratios of 0.5% methyl cellulose and distilled water as administration solutions for test compounds was used as vehicle. Administration solutions for vehicle or test compounds were orally administered to mice at 5 mL/kg.

The test system of series [2] is male guinea pigs. In words: Confirmation test for reduction effects on heart rate. It is filed as in vivo. The conditions noted are these: anesthetized guinea pigs, intravenous (vein of penis), 0.03 mg/kg. The text has this:
Confirmation Test for Reduction Effects on Heart Rate
Effects on heart rate of a test compound and fingolimod, which is an S1P1 receptor agonist, were confirmed using male guinea pigs (Japan SLC, 5 to 8-weeks-old in use). Guinea pigs were incised in the median line of cervical region under anesthesia with pentobarbital (Kyoritsu Pharmaceutical) by intraperitoneal administration. A PE90 catheter filled with saline (Otsuka Pharmaceutical Factory) containing 50 units/mL heparin (Mochida Pharmaceutical) was inserted to right common carotid artery. By holding the insertion site of the catheter with silk sutures, it was performed to avoid bleeding from the insertion site and to fix the catheter. After it was confirmed that blood flow reached into the catheter, an apical end of catheter opposite to the insertion site of artery was connected to pressure transducer, and blood pressure and heart rate were measured via a strain pressure amplifier and a heart rate counter unit, respectively. […]
After it was confirmed that blood pressure and heart rate were stabilized in guinea pigs, vehicle, the test compound or fingolimod was administered into the vein of penis at 0.25 mL/kg using 1 mL syringes with needles of 27G. The changes of blood pressure and heart rate were measured every 5 minutes after administration of vehicle, the test compound or fingolimod.

The mark [3] stands for this setting: oral twice a day, 1.5 mg/kg, vehicle group = 100%.

Structures are written as SMILES.

For the molecule `C[C@]12C=CC(=O)C=C1CC[C@@H]1[C@@H]2[C@@H](O)C[C@@]2(C)[C@H]1CC[C@]2(O)C(=O)CO` [Prednisclone, reference compound], the “Body weight change ratio (%)” value in series [1] (oral twice a day from day 15, 1.5 mg/kg, day 30) is −10.4 ± 1.4%. In series [1] (setting [3]), the “Colon weight (%)” value worked out at 58.3 ± 18.9% and the “DAI score (%)” value was found to be 104.4 ± 20.0%.
For `CCCCCCCCc1ccc(CCC(N)(CO)CO)cc1` [fingolimod], the “effect on heart rate” value in series [2] is recorded as “remarkable reduction of heart rate”.
